According to ChEMBL document CHEMBL5291721, “A preclinical secondary pharmacology resource illuminates target-adverse drug reaction associations of marketed drugs” (Nat Commun, 2023):

Tests used:
Glucagon receptor = Glucagon receptor (Homo sapiens, UniProt P47871)
[1] = target: T1, 5-hydroxytryptamine receptor 1A (Homo sapiens, UniProt P08908)
T1 sequence (P08908 whole entry): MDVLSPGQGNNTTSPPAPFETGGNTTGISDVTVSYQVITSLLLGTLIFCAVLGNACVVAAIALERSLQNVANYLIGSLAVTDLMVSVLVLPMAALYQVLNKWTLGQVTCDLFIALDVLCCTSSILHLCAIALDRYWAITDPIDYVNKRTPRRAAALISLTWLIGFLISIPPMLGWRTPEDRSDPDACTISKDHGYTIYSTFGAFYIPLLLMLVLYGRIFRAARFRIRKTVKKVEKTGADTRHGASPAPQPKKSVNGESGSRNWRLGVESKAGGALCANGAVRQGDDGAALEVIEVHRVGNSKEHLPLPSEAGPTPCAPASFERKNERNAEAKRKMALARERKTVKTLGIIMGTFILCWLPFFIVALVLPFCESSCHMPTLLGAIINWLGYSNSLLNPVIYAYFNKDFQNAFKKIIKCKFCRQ

D(1A) dopamine receptor = D(1A) dopamine receptor (Homo sapiens, UniProt P21728)
Histamine H1 receptor [2] = target: T2, Histamine H1 receptor (Homo sapiens, UniProt P35367); type: functional, cell-based
[3] = target: 5-hydroxytryptamine receptor 7 (Homo sapiens, UniProt P34969)
Histamine H1 receptor [4] = target: T2, Histamine H1 receptor; type: functional, cell-based; remark: listed apart in the source
[5] = target: 5-hydroxytryptamine receptor 2A (Homo sapiens, UniProt P28223)
Progesterone receptor = target: T3, Progesterone receptor (Homo sapiens, UniProt P06401)
T3 sequence (P06401 whole entry): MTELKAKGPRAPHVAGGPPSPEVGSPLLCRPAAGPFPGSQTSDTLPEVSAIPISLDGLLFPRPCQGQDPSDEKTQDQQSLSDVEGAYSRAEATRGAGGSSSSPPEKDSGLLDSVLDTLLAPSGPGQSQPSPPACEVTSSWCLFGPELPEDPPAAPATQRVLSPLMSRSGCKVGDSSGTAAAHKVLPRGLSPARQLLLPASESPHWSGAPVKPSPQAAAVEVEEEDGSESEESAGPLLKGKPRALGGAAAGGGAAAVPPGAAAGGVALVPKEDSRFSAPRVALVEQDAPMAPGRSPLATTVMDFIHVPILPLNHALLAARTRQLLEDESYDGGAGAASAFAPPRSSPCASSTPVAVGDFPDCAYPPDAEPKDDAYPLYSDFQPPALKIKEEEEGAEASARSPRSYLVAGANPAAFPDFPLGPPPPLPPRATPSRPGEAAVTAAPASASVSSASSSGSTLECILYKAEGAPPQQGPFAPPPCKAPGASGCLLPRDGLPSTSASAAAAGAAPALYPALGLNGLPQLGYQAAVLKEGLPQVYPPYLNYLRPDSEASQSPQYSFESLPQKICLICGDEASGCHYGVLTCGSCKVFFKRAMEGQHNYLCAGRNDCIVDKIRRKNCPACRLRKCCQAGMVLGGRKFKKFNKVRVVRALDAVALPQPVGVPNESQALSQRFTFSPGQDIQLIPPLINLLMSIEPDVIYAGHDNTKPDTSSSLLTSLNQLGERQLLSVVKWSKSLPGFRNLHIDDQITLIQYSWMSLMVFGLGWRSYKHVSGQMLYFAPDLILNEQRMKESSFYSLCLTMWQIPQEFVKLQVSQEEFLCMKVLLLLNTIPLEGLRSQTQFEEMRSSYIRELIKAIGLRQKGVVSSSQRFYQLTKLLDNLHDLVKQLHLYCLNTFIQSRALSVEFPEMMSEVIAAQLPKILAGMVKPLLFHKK

[6] = target: 5-hydroxytryptamine receptor 2B (Homo sapiens, UniProt P41595)
[7] = target: T4, Alpha-2A adrenergic receptor (Homo sapiens, UniProt P08913)
T4 sequence (P08913 whole entry): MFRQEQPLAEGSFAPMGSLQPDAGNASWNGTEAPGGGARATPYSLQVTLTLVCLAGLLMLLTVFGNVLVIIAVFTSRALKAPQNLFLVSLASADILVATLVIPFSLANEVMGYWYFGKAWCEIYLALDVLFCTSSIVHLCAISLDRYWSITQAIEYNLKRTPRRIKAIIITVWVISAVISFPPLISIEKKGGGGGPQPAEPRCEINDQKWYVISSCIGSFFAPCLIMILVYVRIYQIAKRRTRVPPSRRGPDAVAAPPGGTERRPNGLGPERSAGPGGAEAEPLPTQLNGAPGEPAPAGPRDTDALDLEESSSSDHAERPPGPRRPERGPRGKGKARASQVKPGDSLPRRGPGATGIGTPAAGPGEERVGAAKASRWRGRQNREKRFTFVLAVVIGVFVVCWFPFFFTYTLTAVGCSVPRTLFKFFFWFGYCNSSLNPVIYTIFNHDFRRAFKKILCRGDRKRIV

[8] = target: Beta-2 adrenergic receptor (Homo sapiens, UniProt P07550); type: functional, cell-based
[9] = target: T5, Peroxisome proliferator-activated receptor gamma (Homo sapiens, UniProt P37231); type: functional
T5 sequence (P37231 whole entry): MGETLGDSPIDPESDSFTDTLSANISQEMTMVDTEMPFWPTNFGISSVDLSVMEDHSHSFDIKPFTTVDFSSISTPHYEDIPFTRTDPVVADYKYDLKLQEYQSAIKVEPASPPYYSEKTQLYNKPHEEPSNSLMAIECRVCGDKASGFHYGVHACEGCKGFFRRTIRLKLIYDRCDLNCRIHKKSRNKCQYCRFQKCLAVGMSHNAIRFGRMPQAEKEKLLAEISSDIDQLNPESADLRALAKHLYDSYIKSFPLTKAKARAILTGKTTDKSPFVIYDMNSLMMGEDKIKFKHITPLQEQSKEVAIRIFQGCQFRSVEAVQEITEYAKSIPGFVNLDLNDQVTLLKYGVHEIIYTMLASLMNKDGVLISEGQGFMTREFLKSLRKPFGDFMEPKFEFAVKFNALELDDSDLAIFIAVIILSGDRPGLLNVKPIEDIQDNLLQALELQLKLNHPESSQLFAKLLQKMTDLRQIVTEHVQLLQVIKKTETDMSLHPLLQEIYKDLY
Further: assay procedure not described here.

Sequence of Beta-2 adrenergic receptor (P07550 whole entry): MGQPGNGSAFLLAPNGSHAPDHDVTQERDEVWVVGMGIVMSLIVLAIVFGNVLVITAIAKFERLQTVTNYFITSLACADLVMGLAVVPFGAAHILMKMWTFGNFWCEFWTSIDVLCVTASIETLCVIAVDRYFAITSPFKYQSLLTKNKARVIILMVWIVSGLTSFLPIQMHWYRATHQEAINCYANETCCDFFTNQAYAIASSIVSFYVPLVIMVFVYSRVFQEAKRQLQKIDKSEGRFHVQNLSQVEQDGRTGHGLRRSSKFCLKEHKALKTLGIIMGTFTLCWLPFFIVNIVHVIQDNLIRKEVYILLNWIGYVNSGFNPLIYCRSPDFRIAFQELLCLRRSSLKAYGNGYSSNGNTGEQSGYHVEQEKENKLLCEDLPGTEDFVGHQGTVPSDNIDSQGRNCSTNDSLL
Sequence of 5-hydroxytryptamine receptor 2A (P28223 whole entry): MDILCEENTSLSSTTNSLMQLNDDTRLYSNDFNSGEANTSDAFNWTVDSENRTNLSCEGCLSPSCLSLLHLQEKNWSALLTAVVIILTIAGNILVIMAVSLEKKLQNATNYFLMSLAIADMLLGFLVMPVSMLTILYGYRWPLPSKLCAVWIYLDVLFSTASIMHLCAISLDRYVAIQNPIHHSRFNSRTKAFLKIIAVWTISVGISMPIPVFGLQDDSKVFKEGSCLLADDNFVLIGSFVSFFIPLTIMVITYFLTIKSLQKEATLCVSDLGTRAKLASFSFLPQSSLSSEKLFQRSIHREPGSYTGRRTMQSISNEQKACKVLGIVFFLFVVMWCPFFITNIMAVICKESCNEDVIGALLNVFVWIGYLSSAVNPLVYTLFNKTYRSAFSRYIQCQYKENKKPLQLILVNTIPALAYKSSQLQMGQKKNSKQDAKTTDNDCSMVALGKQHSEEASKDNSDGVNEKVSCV
T2 sequence (P35367 whole entry): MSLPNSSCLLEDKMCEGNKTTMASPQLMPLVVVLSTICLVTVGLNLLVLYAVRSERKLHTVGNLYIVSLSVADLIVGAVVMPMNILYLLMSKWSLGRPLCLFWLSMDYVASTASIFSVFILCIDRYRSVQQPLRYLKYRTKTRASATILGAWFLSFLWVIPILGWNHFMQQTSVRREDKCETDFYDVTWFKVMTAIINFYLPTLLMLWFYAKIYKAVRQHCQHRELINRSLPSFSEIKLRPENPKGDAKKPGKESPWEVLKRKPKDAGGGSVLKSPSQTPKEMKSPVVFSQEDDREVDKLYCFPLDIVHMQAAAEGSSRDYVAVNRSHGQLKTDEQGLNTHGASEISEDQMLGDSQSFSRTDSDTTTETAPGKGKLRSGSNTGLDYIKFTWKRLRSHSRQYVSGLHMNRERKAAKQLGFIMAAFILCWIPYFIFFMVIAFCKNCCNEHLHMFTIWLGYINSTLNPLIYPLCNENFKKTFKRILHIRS
Sequence of D(1A) dopamine receptor (P21728 whole entry): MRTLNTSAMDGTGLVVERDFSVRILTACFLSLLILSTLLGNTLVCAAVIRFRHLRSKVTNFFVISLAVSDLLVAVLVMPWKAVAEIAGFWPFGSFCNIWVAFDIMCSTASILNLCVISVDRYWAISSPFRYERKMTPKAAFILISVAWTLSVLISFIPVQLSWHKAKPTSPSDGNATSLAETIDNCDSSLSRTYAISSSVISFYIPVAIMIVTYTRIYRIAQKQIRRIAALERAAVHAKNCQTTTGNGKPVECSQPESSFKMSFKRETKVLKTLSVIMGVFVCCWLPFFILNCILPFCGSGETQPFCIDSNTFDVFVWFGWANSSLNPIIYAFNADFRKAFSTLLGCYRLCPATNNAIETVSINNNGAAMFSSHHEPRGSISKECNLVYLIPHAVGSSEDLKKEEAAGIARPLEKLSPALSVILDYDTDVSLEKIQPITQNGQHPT
Sequence of 5-hydroxytryptamine receptor 2B (P41595 whole entry): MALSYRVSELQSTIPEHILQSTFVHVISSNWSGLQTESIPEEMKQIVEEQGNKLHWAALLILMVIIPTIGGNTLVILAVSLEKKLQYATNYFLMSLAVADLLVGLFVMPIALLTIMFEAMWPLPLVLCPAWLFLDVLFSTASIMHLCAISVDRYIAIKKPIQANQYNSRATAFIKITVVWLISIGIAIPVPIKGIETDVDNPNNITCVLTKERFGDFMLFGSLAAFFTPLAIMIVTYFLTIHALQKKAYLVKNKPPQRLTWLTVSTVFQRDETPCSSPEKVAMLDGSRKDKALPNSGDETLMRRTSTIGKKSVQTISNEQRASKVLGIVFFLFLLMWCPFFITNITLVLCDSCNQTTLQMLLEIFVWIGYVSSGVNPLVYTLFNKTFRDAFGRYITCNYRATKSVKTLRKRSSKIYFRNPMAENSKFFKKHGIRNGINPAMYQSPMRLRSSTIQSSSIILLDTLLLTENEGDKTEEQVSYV
Sequence of 5-hydroxytryptamine receptor 7 (P34969 whole entry): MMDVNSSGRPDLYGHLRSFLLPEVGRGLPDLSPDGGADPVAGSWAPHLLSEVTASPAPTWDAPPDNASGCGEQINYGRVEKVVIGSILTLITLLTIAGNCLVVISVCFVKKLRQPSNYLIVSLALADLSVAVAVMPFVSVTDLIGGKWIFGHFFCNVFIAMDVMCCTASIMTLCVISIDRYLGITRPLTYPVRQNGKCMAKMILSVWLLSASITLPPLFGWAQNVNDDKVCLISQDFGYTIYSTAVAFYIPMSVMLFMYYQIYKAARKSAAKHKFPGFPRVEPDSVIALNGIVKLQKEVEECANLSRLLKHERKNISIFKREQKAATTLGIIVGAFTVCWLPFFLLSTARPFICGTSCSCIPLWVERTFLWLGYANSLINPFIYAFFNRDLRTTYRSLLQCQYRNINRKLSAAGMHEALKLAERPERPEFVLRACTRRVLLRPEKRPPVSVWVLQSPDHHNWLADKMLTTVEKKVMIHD
Sequence of Glucagon receptor (P47871 whole entry): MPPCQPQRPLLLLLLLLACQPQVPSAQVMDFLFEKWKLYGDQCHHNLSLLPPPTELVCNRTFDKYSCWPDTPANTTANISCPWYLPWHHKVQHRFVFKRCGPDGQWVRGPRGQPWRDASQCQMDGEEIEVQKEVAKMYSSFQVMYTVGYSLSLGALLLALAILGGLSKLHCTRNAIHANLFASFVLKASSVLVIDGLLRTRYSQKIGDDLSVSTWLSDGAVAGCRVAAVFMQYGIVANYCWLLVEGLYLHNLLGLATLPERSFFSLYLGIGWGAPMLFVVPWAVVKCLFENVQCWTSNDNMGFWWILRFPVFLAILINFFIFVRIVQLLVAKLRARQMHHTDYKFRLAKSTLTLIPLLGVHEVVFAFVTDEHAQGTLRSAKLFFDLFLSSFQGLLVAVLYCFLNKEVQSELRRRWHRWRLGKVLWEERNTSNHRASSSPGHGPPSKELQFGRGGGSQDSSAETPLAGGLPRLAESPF

AC50 (Glucagon receptor) | AC50 [1] | AC50 (Histamine H1 receptor [2]) | AC50 [3] | AC50 (Histamine H1 receptor [4]) | AC50 [5] | AC50 (Progesterone receptor) | AC50 [6] | AC50 [7] | AC50 [8] | SMILES | AC50 (D(1A) dopamine receptor) | AC50 [9]
> 30 µM | > 10 µM | > 30 µM | > 10 µM | > 30 µM | > 10 µM | > 30 µM | > 10 µM | > 10 µM | > 30 µM | CCCCc1ncc(/C=C(\Cc2cccs2)C(=O)O)n1Cc1ccc(C(=O)O)cc1 [EPROSARTAN] | > 10 µM | 
 | > 10 µM | > 30 µM |  | > 30 µM | 4.72 µM | > 30 µM | > 10 µM | > 10 µM | > 30 µM | CC[C@@H]1C(=O)OC[C@@H]1Cc1cncn1C [PILOCARPINE] |  | 
 | 0.338 µM | 0.0681 µM |  | > 30 µM | 0.0002 µM |  |  | 0.577 µM | > 30 µM | CN1CCC(=C2c3ccccc3CCc3sccc32)CC1 [PIZOTYLINE] |  | 

SMILES | AC50 (Glucagon receptor) | AC50 [1] | AC50 (Histamine H1 receptor [2]) | AC50 [3] | AC50 (Histamine H1 receptor [4]) | AC50 [5] | AC50 (Progesterone receptor) | AC50 [6] | AC50 [7] | AC50 [8] | AC50 (D(1A) dopamine receptor) | AC50 [9]
CCN(CC)C(=O)N[C@H]1C[C@@H]2c3cccc4[nH]cc(c34)C[C@H]2N(C)C1 [TERGURIDE] |  |  | 7.49 µM |  | > 30 µM |  |  |  |  | > 30 µM | 0.41 µM | > 30 µM
